In patent US9708314B2, “Heterocyclic amide compound” (NISSAN CHEMICAL INDUSTRIES, LTD., priority 2013, dated 2017):

Legend:
Type in all cases: in vivo
Conditions in all cases: application to foliage, 320 g/ha
[1] = test system: Echinochloa crus-galli var. crus-galli; experiment: Test Example 4: herbicidal effect by application to foliage (diluvial soil, plastic box)
Excerpt: (§1) 5 Herbicidal ratio of 90% or more (almost completely withered) 4 Herbicidal ratio of 70% or more and less than 90% 3 Herbicidal ratio of 40% or more and less than 70% 2 Herbicidal ratio of 20% or more and less than 40% 1 Herbicidal ratio of 5% or more and less than 20% 0 Herbicidal ratio of 5% or less (almost no effect) [Test Example 4] Herbicidal Effect Test by Application to Foliage Sterilized diluvial soil was placed in a plastic box having a length of 21 cm, a width of 13 cm, and a depth of 7 cm. Each of the seeds of Digitaria ciliaris, Setaria viridis, Echinochloa crus-galli var. crus-galli, Avena fatua, Alopecurus myosuroides, Lolium multiflorum Lam., Apera spica-venti., Abutilon theophrasti, Amaranthus retroflexus, Chenopodium album, Stellaria media, Galium spurium, Veronica persica, Zea mays, Glycine max, Oryza sativa, Triticum aestivum, Beta vulgaris ssp. vulgaris, and Brassica campestris L. was sowed in a spot-like manner and was covered with the soil of about 1.5 cm thick. Thereafter, the plants were grown in the greenhouse of 25° C. to 30° C. After the plants were grown for 14 days, the emulsion agent containing the compound of the present invention prepared in accordance with Formulation Example 2 was diluted with water so as to be a predetermined herbicide amount and the diluted compound was uniformly applied to a stem and leaf part with a small-size spray. Three weeks after the herbicide application, effects on each plant were investigated in accordance with the criteria of Test Example 1. A: Echinochloa oryzicola Vasing., B: Scirpus juncoides, C: Monochoria vaginalis, D: Leptochloa chinensis, E: Cyperus difformis, F: Digitaria ciliaris, G: Setaria viridis, H: Echinochloa crus-galli var. crus-galli, I: Avena fatua, J: Alopecurus myosuroides, K: Lolium multiflorum Lam., L: Apera spica-venti., M: Abutilon theophrasti, N: Amaranthus retroflexus, O: Chenopodium album, P: Stellaria media, Q: Galium spurium, R: Veronica persica, a: transplanted Oryza sativa, b: directly sowed Oryza sativa, c: Zea mays, d: Glycine max, e: Triticum aestivum, f: Beta vulgaris ssp. vulgaris, and g: Brassica campestris L. The application herbicide amount (g/ha) means an amount that a concentration is adjusted so that, when an application amount is converted into per hectare (1 ha), the herbicide is applied by the number of grams (g) of the described value.

[2] = test system: Apera spica-venti.; experiment: as above
Excerpt: as §1

[3] = test system: Setaria viridis; experiment: as above
Excerpt: as §1

[4] = test system: Alopecurus myosuroides; experiment: as above
Excerpt: as §1

[5] = test system: Digitaria ciliaris; experiment: as above
Excerpt: as §1

[6] = test system: Galium spurium; experiment: as above
Excerpt: as §1

[7] = test system: Stellaria media; experiment: as above
Excerpt: as §1

[8] = test system: Lolium multiflorum Lam.; experiment: as above
Excerpt: as §1

[9] = test system: Amaranthus retroflexus; experiment: as above
Excerpt: as §1

[10] = test system: Chenopodium album; experiment: as above
Excerpt: as §1

[11] = test system: Veronica persica; experiment: as above
Excerpt: as §1

[12] = test system: Abutilon theophrasti; experiment: as above
Excerpt: as §1

[13] = test system: Avena fatua; experiment: as above
Excerpt: as §1

[14] = test system: directly sowed Oryza sativa; experiment: Test Example 4: effect on crop by application to foliage (diluvial soil, plastic box)
Method in brief: (§2)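 Seeds sown in sterilized diluvial soil, covered ~1.5 cm, grown 14 days in greenhouse at 25° C. to 30° C. Emulsion formulation diluted in water to set rate (g/ha) and sprayed onto stems and leaves. Effect scored visually 3 weeks later on 0–5 scale (5 = ≥90% herbicidal ratio, 0 = ≤5%).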

[15] = test system: Beta vulgaris ssp. vulgaris; experiment: as above
Method in brief: as §2

[16] = test system: Triticum aestivum; experiment: as above
Method in brief: as §2

[17] = test system: Brassica campestris L.; experiment: as above
Method in brief: as §2

[18] = test system: Glycine max; experiment: as above
Method in brief: as §2

[19] = test system: Zea mays; experiment: as above
Method in brief: as §2

| SMILES | herbicidal effect, H (Echinochloa crus-galli var. crus-galli) [1] | herbicidal effect, L (Apera spica-venti.) [2] | herbicidal effect, G (Setaria viridis) [3] | herbicidal effect, J (Alopecurus myosuroides) [4] | herbicidal effect, F (Digitaria ciliaris) [5] | herbicidal effect, Q (Galium spurium) [6] | herbicidal effect, P (Stellaria media) [7] | herbicidal effect, K (Lolium multiflorum Lam.) [8] | herbicidal effect, N (Amaranthus retroflexus) [9] | herbicidal effect, O (Chenopodium album) [10] | herbicidal effect, R (Veronica persica) [11] | herbicidal effect, M (Abutilon theophrasti) [12] | herbicidal effect, I (Avena fatua) [13] | effect on crop, d (directly sowed Oryza sativa) [14] | effect on crop, f (Beta vulgaris ssp. vulgaris) [15] | effect on crop, e (Triticum aestivum) [16] | effect on crop, g (Brassica campestris L.) [17] | effect on crop, c (Glycine max) [18] | effect on crop, b (Zea mays) [19] |
| --- | --- | --- | --- | --- | --- | --- | --- | --- | --- | --- | --- | --- | --- | --- | --- | --- | --- | --- | --- |
| Cc1nnc(NC(=O)c2ccc(C(F)(F)F)n3c(=O)n(Cc4ccccc4)nc23)o1 [6-006] | 0 (Herbicidal ratio of 5% or less (almost no effect)) | 0 (Herbicidal ratio of 5% or less (almost no effect)) | 0 (Herbicidal ratio of 5% or less (almost no effect)) | 0 (Herbicidal ratio of 5% or less (almost no effect)) | 0 (Herbicidal ratio of 5% or less (almost no effect)) | 0 (Herbicidal ratio of 5% or less (almost no effect)) | 1 (Herbicidal ratio of 5% or more and less than 20%) | 0 (Herbicidal ratio of 5% or less (almost no effect)) | 0 (Herbicidal ratio of 5% or less (almost no effect)) | 3 (Herbicidal ratio of 40% or more and less than 70%) | 1 (Herbicidal ratio of 5% or more and less than 20%) | 1 (Herbicidal ratio of 5% or more and less than 20%) | 0 (Herbicidal ratio of 5% or less (almost no effect)) | 0 (Herbicidal ratio of 5% or less (almost no effect)) | 0 (Herbicidal ratio of 5% or less (almost no effect)) | 0 (Herbicidal ratio of 5% or less (almost no effect)) | 0 (Herbicidal ratio of 5% or less (almost no effect)) | 0 (Herbicidal ratio of 5% or less (almost no effect)) | 0 (Herbicidal ratio of 5% or less (almost no effect)) |
| CCn1nc2c(C(=O)Nc3ncnn3C)ccc(C(F)(F)F)n2c1=O [6-007] | 0 (Herbicidal ratio of 5% or less (almost no effect)) | 0 (Herbicidal ratio of 5% or less (almost no effect)) | 0 (Herbicidal ratio of 5% or less (almost no effect)) | 0 (Herbicidal ratio of 5% or less (almost no effect)) | 0 (Herbicidal ratio of 5% or less (almost no effect)) | 0 (Herbicidal ratio of 5% or less (almost no effect)) | 0 (Herbicidal ratio of 5% or less (almost no effect)) | 0 (Herbicidal ratio of 5% or less (almost no effect)) | 3 (Herbicidal ratio of 40% or more and less than 70%) | 3 (Herbicidal ratio of 40% or more and less than 70%) | 0 (Herbicidal ratio of 5% or less (almost no effect)) | 2 (Herbicidal ratio of 20% or more and less than 40%) | 0 (Herbicidal ratio of 5% or less (almost no effect)) | 2 (Herbicidal ratio of 20% or more and less than 40%) | 3 (Herbicidal ratio of 40% or more and less than 70%) | 0 (Herbicidal ratio of 5% or less (almost no effect)) | 0 (Herbicidal ratio of 5% or less (almost no effect)) | 0 (Herbicidal ratio of 5% or less (almost no effect)) | 0 (Herbicidal ratio of 5% or less (almost no effect)) |
| CCn1nc2c(C(=O)Nc3nonc3C)ccc(C(F)(F)F)n2c1=O [6-008] | 0 (Herbicidal ratio of 5% or less (almost no effect)) | 0 (Herbicidal ratio of 5% or less (almost no effect)) | 0 (Herbicidal ratio of 5% or less (almost no effect)) | 0 (Herbicidal ratio of 5% or less (almost no effect)) | 0 (Herbicidal ratio of 5% or less (almost no effect)) | 0 (Herbicidal ratio of 5% or less (almost no effect)) | 1 (Herbicidal ratio of 5% or more and less than 20%) | 0 (Herbicidal ratio of 5% or less (almost no effect)) | 0 (Herbicidal ratio of 5% or less (almost no effect)) | 3 (Herbicidal ratio of 40% or more and less than 70%) | 0 (Herbicidal ratio of 5% or less (almost no effect)) | 1 (Herbicidal ratio of 5% or more and less than 20%) | 0 (Herbicidal ratio of 5% or less (almost no effect)) | 1 (Herbicidal ratio of 5% or more and less than 20%) | 1 (Herbicidal ratio of 5% or more and less than 20%) | 0 (Herbicidal ratio of 5% or less (almost no effect)) | 0 (Herbicidal ratio of 5% or less (almost no effect)) | 0 (Herbicidal ratio of 5% or less (almost no effect)) | 0 (Herbicidal ratio of 5% or less (almost no effect)) |
